Data published in US20250312258A1, “2,3-PYRROLIDINEDIONE CONJUGATES AND METHODS OF USING THEREOF” (North Carolina State University, priority 2022, published 2025).
In brackets after ≈: the same amount, converted by molar mass. Read-outs that look alike come from different tables or passages of the source.

How the values were obtained:
S. aureus VRS-2 = test: VRSA thigh infection model in neutropenic mice; format: in vivo, mouse; conditions: 100 mg/kg IP BID q12h; for bacterial count reduction in thigh tissue relative to the vehicle control group: 26 h post-infection, p<0.05
Description: (§1) FIG. 8 is a plot comparing the efficacy of linezolid, Compound 4 (AV-0273), and Compound 8 (AV-0267) in the S. aureus VRS-2 thigh infection model, CFU/g thigh. Test animals were rendered neutropenic with cyclophosphamide administration, 150 mg/kg on Day −4 then 100 mg/kg on Day −1 prior to infection on Day 0. On Day 0, animals were intramuscularly inoculated with 8.4×10^4 CFU/mouse (0.1 mL/animal) of the S. aureus VRS-2 strain. The vehicle and the test articles, Compound 4 (AV-0273) and Compound 8 (AV-0267), both at 100 mg/kg, were each intraperitoneally (IP) administered twice with a 12 h interval (BID q12h) at 2 and 14 h after infection. The reference standard, linezolid at 50 mg/kg, was orally (PO) administered BID q12 h starting at 2 h post-infection. Animals were sacrificed at 2 or 26 h post-infection, and the thigh tissues were harvested and weighed from each of the test animals. The bacterial counts (CFU/g thigh) of thigh tissue homogenates were measured.
as §1, with “FIG. 9” for “FIG. 8”, “of linezolid” for “of linezolid,”, “CFU/g thigh, change in bacterial counts relative to baseline count at 26h post-infection. Data represent the change in bacterial counts in thigh tissue following test article treatment relative to the initial 2 h CFU/g thigh or CFU/thigh at the time of dosing (baseline counts).” for “CFU/g thigh.”, “(BID q12 h)” for “(BID q12h)”, “(CFU/g thigh and CFU/thigh)” for “(CFU/g thigh)”, “were compared.” for “were measured.”
Example vancomycin-2,3-pyrrolidinediones conjugates were evaluated using an in vivo tissue infection model with vancomycin resistant MRSA:
Animal model: Murine thigh infection
Bacteria: VRSA (VRS-2). Gram Positive, Staphylococcus aureus (VRSA, VRS-2), Mouse Infected Thigh Model. VRS-2 is VanA producing SCC Mec II st5 train.
Vancomycin conjugates dose: 100 mg/Kg intraperitoneally (IP).
Application: This model assesses the antimicrobial efficacy of test articles in a tissue infection model with vancomycin resistant MRSA. Microbial counts are measured. […]

MSSA ATCC 25923 biofilm = test: Viable bacteria in supernatant and biofilm after single treatment of MSSA biofilm; format: cell-based, Staphylococcus aureus
Source text: FIG. 5 is a plot showing the effect of a single dose of different concentrations of Compound 4 on the concentration of bacteria in the supernatant over a methicillin-susceptible Staphylococcus aureus (MSSA ATCC 25923). FIG. 6 is a plot showing the time-dependent biofilm population following treatment of a methicillin-susceptible Staphylococcus aureus (MSSA ATCC 25923) biofilm with Compound 4. […] FIG. 5 is a plot showing the effect of a single dose of different concentrations of Compound 4 on the concentration of bacteria in the supernatant over a methicillin-susceptible Staphylococcus aureus (MSSA ATCC 25923). […] FIG. 6 is a plot showing the time-dependent biofilm population following treatment of a methicillin-susceptible Staphylococcus aureus (MSSA ATCC 25923) biofilm with Compound 4.

vanB VRE 51299 = test: MIC against vanB VRE 51299; format: cell-based, Enterococcus spp.; conditions: Enterococcus
MRSA (strain LAC) = test: Time-dependent killing of MRSA (strain LAC); format: cell-based, Staphylococcus aureus; conditions: liquid culture, single inoculation, FIG. 3
Source text: FIG. 3 is a plot showing the time-dependent killing of MRSA (strain LAC) by vancomycin and an example vancomycin-2-3-pyrrolidinedione conjugate (Compound 4).
(§2) With these initial results in hand, the time-dependent killing of bacterial strains by the vancomycin-2-3-pyrrolidinedione conjugates was investigated. FIG. 2 is a plot showing the time-dependent killing of S. aureus (strain HG003) by vancomycin and an example vancomycin-2-3-pyrrolidinedione conjugate (Compound 4, also referred to as AV-273). FIG. 3 is a plot showing the time-dependent killing of MRSA (strain LAC) by vancomycin and an example vancomycin-2-3-pyrrolidinedione conjugate (Compound 4).

S. aureus (strain HG003) = test: Time-dependent killing of S. aureus (strain HG003); format: cell-based, Staphylococcus aureus; conditions: S. aureus strain HG003, liquid culture, single inoculation, FIG. 2
Source text: FIG. 2 is a plot showing the time-dependent killing of S. aureus (strain HG003) by vancomycin and an example vancomycin-2-3-pyrrolidinedione conjugate (Compound 4).
as §2

vanC-1 VRE 49608 = test: MIC against vanC-1 VRE 49608; format: cell-based, Enterococcus spp.; conditions: Enterococcus
VRSA = conditions: S. aureus VRS-2; cited from earlier work

MIC (vanB VRE 51299; VRE, the 2nd table, read-out: MIC (vanB VRE 51299))	MIC (vanB VRE 51299; vanB VRE 51299, the 3rd table, read-out: MIC)	MIC (vanC-1 VRE 49608; VRE, the 2nd table, read-out: MIC (vanC-1 VRE 49608))	MIC (vanC-1 VRE 49608; vanC-1 VRE 49608, the 3rd table, read-out: MIC)	SMILES	bacterial count reduction in thigh tissue relative to the vehicle control group (S. aureus VRS-2)	effect relative to the baseline control (S. aureus VRS-2; FIG. 9)	single dose at which no viable bacterial cells were detected in the treatment supernatant (MSSA ATCC 25923 biofilm; MSSA ATCC 25923, detection limit 10^2, FIG. 5)	viable biofilm-embedded bacterial cells (MSSA ATCC 25923 biofilm; MSSA ATCC 25923 biofilm, 24 hours after a single treatment at twice the MBEC, FIG. 6)	time-dependent killing profile (MRSA (strain LAC))	time-dependent killing profile (S. aureus (strain HG003))	MIC of vancomycin for VRS-2 (strain description) (VRSA)	antibiotic resistance profile of VRS-2: vancomycin (VRSA)	MIC (vanB VRE 51299; VRE)	MIC (vanB VRE 51299; VRE, read-out: MIC (vanB VRE 51299))	MIC (vanC-1 VRE 49608; VRE)	MIC (vanC-1 VRE 49608; VRE, read-out: MIC (vanC-1 VRE 49608))
2 µg/mL (≈ 5.23 µM)	2 µg/mL (≈ 5.23 µM)	0.5 µg/mL (≈ 1.31 µM)	0.5 µg/mL (≈ 1.31 µM)	CCC1C(c2ccc(C(F)(F)F)cc2)=C(O)C(=O)N1C1CCC(NC)CC1 (centres unmarked) [Compound 4]	100%	bacteriostatic effect	at least 16 μg/mL	no viable biofilm-embedded bacterial cells were detected	roughly matched vancomycin at the same concentration	roughly matched vancomycin at the same concentration	–	–	–	–	–	–
–	–	–	–	CCC1C(c2ccc(C(F)(F)F)cc2)=C(O)C(=O)N1CCCNCCCCNC (centres unmarked) [Compound 8]	100%	–	–	–	–	–	–	–	–	–	–	–
–	–	–	–	CN[C@H](CC(C)C)C(=O)N[C@H]1C(=O)N[C@@H](CC(N)=O)C(=O)N[C@H]2C(=O)N[C@H]3C(=O)N[C@H](C(=O)N[C@H](C(=O)O)c4cc(O)cc(O)c4-c4cc3ccc4O)[C@H](O)c3ccc(c(Cl)c3)Oc3cc2cc(c3O[C@@H]2O[C@H](CO)[C@@H](O)[C@H](O)[C@H]2O[C@H]2C[C@](C)(N)[C@H](O)[C@H](C)O2)Oc2ccc(cc2Cl)[C@H]1O [Vancomycin, vancomycin, reference compound]	–	–	–	–	–	–	> 64 µg/mL	> 64 µg/mL	256 µg/mL (≈ 177 µM)	256 µg/mL (≈ 177 µM)	32 µg/mL (≈ 22.1 µM)	32 µg/mL (≈ 22.1 µM)
